Consider six compounds from ChEMBL document CHEMBL1144205, “Screening of herbal constituents for aromatase inhibitory activity” (Bioorg Med Chem, 2008).

For assay [1], the target named is T1, Aromatase (Homo sapiens, UniProt P11511).
T1 sequence (P11511 whole entry): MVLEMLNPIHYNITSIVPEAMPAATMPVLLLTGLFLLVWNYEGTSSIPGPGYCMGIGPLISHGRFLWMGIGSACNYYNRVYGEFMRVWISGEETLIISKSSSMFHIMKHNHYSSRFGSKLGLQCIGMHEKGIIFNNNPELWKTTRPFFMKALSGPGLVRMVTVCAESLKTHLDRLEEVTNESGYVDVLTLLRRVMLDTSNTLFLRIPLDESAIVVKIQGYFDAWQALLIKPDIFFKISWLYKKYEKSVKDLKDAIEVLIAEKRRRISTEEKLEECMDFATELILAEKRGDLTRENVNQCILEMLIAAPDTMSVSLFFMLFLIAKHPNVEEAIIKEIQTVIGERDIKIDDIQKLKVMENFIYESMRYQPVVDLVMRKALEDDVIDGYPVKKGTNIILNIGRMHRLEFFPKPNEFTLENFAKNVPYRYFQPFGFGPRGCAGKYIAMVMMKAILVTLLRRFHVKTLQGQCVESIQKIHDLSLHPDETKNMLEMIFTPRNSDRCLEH
Description: Inhibition of human aromatase by fluorometric assay.

The target of assay [2] is T1, Aromatase. The assay can be described thus: Inhibition of human aromatase expressed in CHO cells. The assay is classed as cell-based.

Regarding `O=c1c(O)c(-c2ccc(O)c(O)c2)oc2c(O)c(O)cc(O)c12` [GOSSYPETIN], inhibition against Aromatase [1] was half-maximal at 11 µM (IC50).
For the compound `O=c1c(O)c(-c2ccccc2)oc2cc(O)cc(O)c12` [GALANGIN], on Aromatase [2], the affinity corresponds to a Ki of 100 µM.
Turning to `O=c1c(-c2ccc(O)cc2)coc2cc(O)cc(O)c12` [GENISTEIN], at Aromatase [2], the Ki worked out at 100 µM.
`O=c1c(O)c(-c2cc(O)c(O)c(O)c2)oc2cc(O)cc(O)c12` [MYRICETIN]: the IC50 against Aromatase [1] was 10 µM. This lies in the double-digit micromolar range.
As for `O=c1c(-c2ccc(O)cc2)coc2cc(O)ccc12` [DAIDZEIN], the Ki at Aromatase [2] was 100 µM.
`O=C1C[C@@H](c2ccc(O)cc2)Oc2cc(O)ccc21` [LIQUIRTIGENIN] displayed a half-maximal inhibitory concentration (IC50) against Aromatase [1] of 0.34 µM.

In general, IC50 refers to the concentration that gives 50% inhibition. For orientation: Ki means a measure of affinity in units of concentration, obtained from inhibition or displacement. A higher Ki goes with lower affinity.
